Assay results reported in patent publication US20240376090A1, “ISOXAZOLE DERIVATIVES AS MODULATORS OF THE 5-HT2A SEROTONIN RECEPTOR USEFUL FOR THE TREATMENT OF DISORDERED RELATED THERETO” (Arena Pharmaceuticals, Inc., priority 2020, published 2024).

Target: 5-HT2A receptor (Homo sapiens (Human), UniProt P28223)
Assay: Radioligand binding assay ([3H]5-HT competition), 5-HT2A
Conditions: [3H]5-HT radioligand, membranes of HEK293 cells expressing recombinant 5-HT2A; Ki from IC50 by Cheng-Prusoff; read-out: 5-HT2A serotonin binding Ki value
Method: Competition binding experiments consisted of addition of 5 μL of serially diluted test compound, 50 μL of radioligand stock diluted in Assay Buffer (20 mM HEPES, pH 7.4, 10 mM MgCl2), and 145 μL of diluted membrane expressing the receptor of interest to 96-well microtiter plates, which were then incubated for one hour at room temperature. Assay incubations were terminated by rapid filtration through Perkin Elmer GF/C filtration plates under vacuum pressure using a 96-well Packard filtration apparatus, followed by washing the filter plates several times with ice cold Assay Buffer. Plates were then dried at 45° C. for a minimum of four hours. Finally, 25 μL of BetaScint scintillation cocktail was added to each well and the plates were counted in a Packard TopCount scintillation counter. In each competition study, test compounds were assayed at 10 concentrations with three replicates at each test concentration. Dose-response curves were constructed to determine IC50 values and these were converted to corresponding Ki values using the Cheng-Prusoff equation.

Chain of 5-HT2A receptor (P28223 whole entry): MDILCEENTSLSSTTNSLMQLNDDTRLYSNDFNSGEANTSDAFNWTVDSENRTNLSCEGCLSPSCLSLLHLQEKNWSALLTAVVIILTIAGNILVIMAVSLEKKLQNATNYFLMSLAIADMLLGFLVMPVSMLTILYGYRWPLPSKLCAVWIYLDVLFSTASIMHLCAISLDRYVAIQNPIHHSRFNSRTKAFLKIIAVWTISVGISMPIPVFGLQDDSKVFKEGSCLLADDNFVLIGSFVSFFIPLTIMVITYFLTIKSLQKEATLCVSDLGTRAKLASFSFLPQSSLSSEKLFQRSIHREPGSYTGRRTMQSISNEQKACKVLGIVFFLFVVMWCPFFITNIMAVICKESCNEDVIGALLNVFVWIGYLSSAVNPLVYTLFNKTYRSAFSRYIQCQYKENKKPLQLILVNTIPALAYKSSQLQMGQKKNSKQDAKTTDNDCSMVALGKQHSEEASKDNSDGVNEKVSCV

Row | Compound | Ki [nM]
1 | Cc1noc(C)c1-c1cc(NC(=O)c2ccncc2F)ccc1OCCN1CCCC1 [Compound 103, N-(3-(3,5-dimethylisoxazol-4-yl)-4-(2-(pyrrolidin-1-yl)ethoxy)phenyl)-3-fluoroisonicotinamide] | 50.8
2 | Cc1noc(C)c1-c1cc(NC(=O)[C@@H]2C[C@H]2F)ccc1OC[C@H]1CCCCN1 [Compound 190, (1S,2R)—N-(3-(3,5-dimethylisoxazol-4-yl)-4-(((R)-piperidin-2-yl)methoxy)phenyl)-2-fluorocyclopropane-1-carboxamide] | 1.19
3 | Cc1noc(C)c1-c1cc(NC(=O)C2CC2)ccc1OCCN1CCC2(CCOC2=O)CC1 [Compound 142, N-(3-(3,5-dimethylisoxazol-4-yl)-4-(2-(1-oxo-2-oxa-8-azaspiro[4.5]decan-8-yl)ethoxy)phenyl)cyclopropanecarboxamide] | 67.4
4 | Cc1nocc1C(=O)Nc1ccc(OC[C@H]2CCCCN2)c(-c2c(C)noc2C)c1 [Compound 183, (R)—N-(3-(3,5-dimethylisoxazol-4-yl)-4-(piperidin-2-ylmethoxy)phenyl)-3-methylisoxazole-4-carboxamide] | 5.09
5 | Cc1ncsc1CC(=O)Nc1ccc(OCCN2CCC2)c(-c2c(C)noc2C)c1 [Compound 127, N-(4-(2-(azetidin-1-yl)ethoxy)-3-(3,5-dimethylisoxazol-4-yl)phenyl)-2-(4-methylthiazol-5-yl)acetamide] | 8.51
6 | Cc1noc(C)c1-c1cc(NC(=O)c2cnoc2)ccc1OC[C@H]1CCCCN1 [Compound 182, N-[3-(3,5-dimethylisoxazol-4-yl)-4-[[(2R)-2-piperidyl]methoxy]phenyl]isoxazole-4-carboxamide] | 61.5
7 | COC1(CC(=O)Nc2ccc(OC[C@H]3CCCCN3)c(-c3c(C)noc3C)c2)CCC1 [Compound 205, (R)—N-(3-(3,5-dimethylisoxazol-4-yl)-4-(piperidin-2-ylmethoxy)phenyl)-2-(1-methoxycyclobutyl)acetamide] | 105
8 | Cc1noc(C)c1-c1cc(NC(=O)C2CC2)ccc1OCCN1CCC2(CC1)CNC2=O [Compound 139, N-(3-(3,5-dimethylisoxazol-4-yl)-4-(2-(1-oxo-2,7-diazaspiro[3.5]nonan-7-yl)ethoxy)phenyl)cyclopropanecarboxamide] | 124
9 | Cc1noc(C)c1-c1cc(NC(=O)C2CC2)ccc1OC[C@@H]1CCCN1 [Compound 176, (S)—N-(3-(3,5-dimethylisoxazol-4-yl)-4-(pyrrolidin-2-ylmethoxy)phenyl)cyclopropanecarboxamide] | 395
10 | Cc1noc(C)c1-c1cc(NC(=O)C2CC2)ccc1O[C@H]1CCNC1 [Compound 180, (S)—N-(3-(3,5-dimethylisoxazol-4-yl)-4-(pyrrolidin-3-yloxy)phenyl)cyclopropanecarboxamide] | 186
11 | Cc1noc(C)c1-c1cc(NC(=O)C2CC2)ccc1O[C@@H]1CCNC1 [Compound 181, (R)—N-(3-(3,5-dimethylisoxazol-4-yl)-4-(pyrrolidin-3-yloxy)phenyl)cyclopropanecarboxamide] | 10
12 | Cc1noc(C)c1-c1cc(NC(=O)c2ccnn2C)ccc1OCCN1CCCC1 [Compound 116, N-[3-(3,5-dimethylisoxazol-4-yl)-4-(2-pyrrolidin-1-ylethoxy)phenyl]-2-methyl-pyrazole-3-carboxamide] | 6.15
13 | Cc1noc(C)c1-c1cc(NC(=O)c2cccc(C(F)(F)F)c2)ccc1OCCN1CCOCC1 [Compound 165, N-[3-(3,5-dimethylisoxazol-4-yl)-4-(2-morpholinoethoxy)phenyl]-3-(trifluoromethyl)benzamide] | 1.08
14 | Cc1nc(C)c(C(=O)Nc2ccc(OCCN3CCCC3)c(-c3c(C)noc3C)c2)s1 [Compound 110, N-(3-(3,5-dimethylisoxazol-4-yl)-4-(2-(pyrrolidin-1-yl)ethoxy)phenyl)-2,4-dimethylthiazole-5-carboxamide] | 110
15 | Cc1noc(C)c1-c1cc(NC(=O)Cc2cncc(F)c2)ccc1OCCN1CCC1 [Compound 128, N-(4-(2-(azetidin-1-yl)ethoxy)-3-(3,5-dimethylisoxazol-4-yl)phenyl)-2-(5-fluoropyridin-3-yl)acetamide] | 14.6
16 | Cc1nc(C(=O)Nc2ccc(OC[C@H]3CCCCN3)c(-c3c(C)noc3C)c2)c(C)o1 [Compound 216, (R)—N-(3-(3,5-dimethylisoxazol-4-yl)-4-(piperidin-2-ylmethoxy)phenyl)-2,5-dimethyloxazole-4-carboxamide] | 298
17 | Cc1noc(C)c1-c1cc(NC(=O)C2CC2)ccc1OCCN1CCC(CC(=O)O)CC1 [Compound 158, 2-[1-[2-[4-(cyclopropanecarbonylamino)-2-(3,5-dimethylisoxazol-4-yl)phenoxy]ethyl]-4-piperidyl]acetic acid] | 233
18 | COc1ccc(CC(=O)Nc2ccc(OCCN3CCC3)c(-c3c(C)noc3C)c2)cc1 [Compound 126, N-(4-(2-(azetidin-1-yl)ethoxy)-3-(3,5-dimethylisoxazol-4-yl)phenyl)-2-(4-methoxyphenyl) acetamide] | 5.28
19 | Cc1noc(C)c1-c1cc(NC(=O)C2CC2)ccc1OCCN1CCOC(=O)CC1 [Compound 137, N-[3-(3,5-dimethylisoxazol-4-yl)-4-[2-(7-oxo-1,4-oxazepan-4-yl)ethoxy]phenyl]cyclopropanecarboxamide] | 551
20 | Cc1noc(C)c1-c1cc(NC(=O)C2CC2)ccc1OCCN1CC2(COC2)C1 [Compound 155, N-[3-(3,5-dimethylisoxazol-4-yl)-4-[2-(2-oxa-6-azaspiro[3.3]heptan-6-yl)ethoxy]phenyl]cyclopropanecarboxamide] | 22
21 | COCC1(C(=O)Nc2ccc(OC[C@H]3CCCCN3)c(-c3c(C)noc3C)c2)CC1 [Compound 204, (R)—N-(3-(3,5-dimethylisoxazol-4-yl)-4-(piperidin-2-ylmethoxy)phenyl)-1-(methoxymethyl)cyclopropane-1-carboxamide] | 25
22 | Cc1noc(C)c1-c1cc(NC(=O)C2CC2)ccc1OCCN(C)CC1CC1 [Compound 151, N-(4-(2-((cyclopropylmethyl)(methyl)amino)ethoxy)-3-(3,5-dimethylisoxazol-4-yl)phenyl)cyclopropanecarboxamide] | 47.1
23 | Cc1noc(C)c1-c1cc(NC(=O)c2cc(F)ccn2)ccc1OCCN1CCCC1 [Compound 104, N-(3-(3,5-dimethylisoxazol-4-yl)-4-(2-(pyrrolidin-1-yl)ethoxy)phenyl)-4-fluoropicolinamide] | 19.6
24 | Cc1noc(C)c1-c1cc(NC(=O)Cc2ccccc2)ccc1OCCN1CCC1 [Compound 123, N-(4-(2-(azetidin-1-yl)ethoxy)-3-(3,5-dimethylisoxazol-4-yl)phenyl)-2-phenylacetamide] | 11.8
25 | Cc1noc(C)c1-c1cc(NC(=O)C2CC2)ccc1OCC1CCN1 (centres unmarked) [Compound 174, N-[4-(azetidin-2-ylmethoxy)-3-(3,5-dimethylisoxazol-4-yl)phenyl]cyclopropanecarboxamide] | 48
26 | Cc1noc(C)c1-c1cc(NC(=O)c2ncnn2C)ccc1OC[C@H]1CCCCN1 [Compound 212, (R)—N-(3-(3,5-dimethylisoxazol-4-yl)-4-(piperidin-2-ylmethoxy)phenyl)-1-methyl-1H-1,2,4-triazole-5-carboxamide] | 38.6
